Assay results reported in ChEMBL document CHEMBL2074283, “Interaction of pristinamycin IA with P-glycoprotein in human intestinal epithelial cells” (Eur J Pharmacol, 1995).
Bridge positions count the residues as written; N and C are the ends. Square brackets hold non-standard residues; d marks the D form. Peptide text beside a SMILES is read from it. * marks the point of attachment. NMePhe(4-NMe2) = CN[C@@H](Cc1ccc(N(C)C)cc1)C(=O)O; Pip(4-oxo) = O=C1CCN[C@H](C(=O)O)C1; Picolinoyl(3-OH) = O=C(c1ncccc1O)*; Phg = N[C@H](C(=O)O)c1ccccc1; dAbu = CC[C@@H](N)C(=O)O

Assays:
[1] = molecular target: ATP-dependent translocase ABCB1 (Homo sapiens, UniProt P08183); assay: TP_TRANSPORTER: transepithelial transport (basal to apical) in Caco-2 cells; format: functional, cell-based
[2] = molecular target: P-glycoprotein (ABCB1) (Homo sapiens, UniProt P08183); assay: TP_TRANSPORTER: inhibition of Vinblastine transepithelial transport (basal to apical) (Vinblastine: 0.05 uM, Pristinamycin IA: 100 uM) in Caco-2 cells; format: functional, cell-based; details: Caco-2, probe Vinblastine 0.05 uM
Sequence of P-glycoprotein (ABCB1) (P08183 whole entry): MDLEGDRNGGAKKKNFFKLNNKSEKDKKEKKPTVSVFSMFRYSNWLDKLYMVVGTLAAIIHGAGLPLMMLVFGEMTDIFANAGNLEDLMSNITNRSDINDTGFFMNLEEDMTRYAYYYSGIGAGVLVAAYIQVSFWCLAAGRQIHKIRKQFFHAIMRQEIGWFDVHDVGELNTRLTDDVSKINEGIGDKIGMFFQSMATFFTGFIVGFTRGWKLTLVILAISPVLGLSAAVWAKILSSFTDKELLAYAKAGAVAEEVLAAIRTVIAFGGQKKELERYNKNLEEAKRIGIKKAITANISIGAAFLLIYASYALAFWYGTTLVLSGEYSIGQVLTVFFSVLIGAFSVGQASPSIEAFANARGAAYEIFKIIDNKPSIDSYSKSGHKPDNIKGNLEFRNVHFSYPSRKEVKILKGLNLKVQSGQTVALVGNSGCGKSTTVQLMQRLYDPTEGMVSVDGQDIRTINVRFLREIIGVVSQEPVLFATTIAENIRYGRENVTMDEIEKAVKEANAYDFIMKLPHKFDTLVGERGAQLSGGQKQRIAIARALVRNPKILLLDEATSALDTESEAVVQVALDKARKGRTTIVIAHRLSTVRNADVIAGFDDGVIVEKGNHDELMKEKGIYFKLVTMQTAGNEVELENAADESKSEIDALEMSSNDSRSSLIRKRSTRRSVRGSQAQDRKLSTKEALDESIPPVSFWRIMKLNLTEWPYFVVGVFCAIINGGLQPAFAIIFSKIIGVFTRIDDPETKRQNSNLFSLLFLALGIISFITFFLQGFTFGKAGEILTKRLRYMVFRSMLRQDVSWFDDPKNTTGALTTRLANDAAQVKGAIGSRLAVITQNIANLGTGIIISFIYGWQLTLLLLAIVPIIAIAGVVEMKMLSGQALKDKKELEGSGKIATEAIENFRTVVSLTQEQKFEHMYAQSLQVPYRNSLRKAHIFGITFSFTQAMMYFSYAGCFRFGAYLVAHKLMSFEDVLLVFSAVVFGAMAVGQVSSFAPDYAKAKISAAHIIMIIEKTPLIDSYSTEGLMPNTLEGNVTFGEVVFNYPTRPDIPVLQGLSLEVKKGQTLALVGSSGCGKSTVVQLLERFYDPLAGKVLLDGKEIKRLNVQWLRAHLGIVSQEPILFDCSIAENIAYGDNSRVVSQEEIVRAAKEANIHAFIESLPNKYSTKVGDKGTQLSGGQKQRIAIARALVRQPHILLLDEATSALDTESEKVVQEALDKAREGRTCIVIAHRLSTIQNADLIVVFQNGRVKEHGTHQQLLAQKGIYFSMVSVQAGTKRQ

Sequence of ATP-dependent translocase ABCB1 (P08183 whole entry): as above

Activity [1]: substrate [+]
inhibition at 100 µM [2]: 55%
SMILES: CC[C@H]1NC(=O)[C@@H](NC(=O)c2ncccc2O)[C@@H](C)OC(=O)[C@H](c2ccccc2)NC(=O)[C@@H]2CC(=O)CCN2C(=O)[C@H](Cc2ccc(N(C)C)cc2)N(C)C(=O)[C@@H]2CCCN2C1=O [PRISTINAMYCIN 1A] ({Picolinoyl(3-OH)}-T[dAbu]P[NMePhe(4-NMe2)][Pip(4-oxo)][Phg]; ester 1-C)
